Experimental data: PubChem BioAssay (NCI)
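Briefly, cells in 96-well plates were exposed to five compound concentrations for 48 h, and endpoints were estimated by linear interpolation. GI50 is the concentration that inhibits growth by half. TGI is the concentration that stops growth completely.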

Columns and labels:
Assay in all cases: inhibition of tumour cell growth, NCI panel, 48 h
NCI/ADR-RES ovarian = tested on: NCI/ADR-RES ovarian
DU-145 prostate = tested on: DU-145 prostate
HOP-62 NSCLC = tested on: HOP-62 NSCLC
RXF 393 renal = tested on: RXF 393 renal
T-47D breast = tested on: T-47D breast
UACC-62 melanoma = tested on: UACC-62 melanoma
SF-295 CNS = tested on: SF-295 CNS
786-0 renal = tested on: 786-0 renal
MDA-MB-231 breast = tested on: MDA-MB-231 breast
HT29 colon = tested on: HT29 colon
SW-620 colon = tested on: SW-620 colon
HCT-15 colon = tested on: HCT-15 colon
IGROV1 ovarian = tested on: IGROV1 ovarian
NCI-H522 lung = tested on: NCI-H522 lung
SK-MEL-5 melanoma = tested on: SK-MEL-5 melanoma
OVCAR-4 ovarian = tested on: OVCAR-4 ovarian
NCI-H23 lung = tested on: NCI-H23 lung
EKVX NSCLC = tested on: EKVX NSCLC
HL-60(TB) leukemia = tested on: HL-60(TB) leukemia
U251 CNS = tested on: U251 CNS
HCT-116 colon = tested on: HCT-116 colon
UO-31 renal = tested on: UO-31 renal
SNB-19 CNS = tested on: SNB-19 CNS
NCI-H460 lung = tested on: NCI-H460 lung
ACHN renal = tested on: ACHN renal
MDA-MB-435 = tested on: MDA-MB-435
K-562 leukemia = tested on: K-562 leukemia
A549 NSCLC = tested on: A549 NSCLC
M14 melanoma = tested on: M14 melanoma
SNB-75 CNS = tested on: SNB-75 CNS
A498 renal = tested on: A498 renal
NCI-H226 lung = tested on: NCI-H226 lung
SK-OV-3 ovarian = tested on: SK-OV-3 ovarian
SN12C renal = tested on: SN12C renal
SR leukemia = tested on: SR leukemia
HCC-2998 colon = tested on: HCC-2998 colon
OVCAR-3 ovarian = tested on: OVCAR-3 ovarian
LOX IMVI melanoma = tested on: LOX IMVI melanoma
MOLT-4 leukemia = tested on: MOLT-4 leukemia
TK-10 renal = tested on: TK-10 renal
BT-549 breast = tested on: BT-549 breast
PC-3 prostate = tested on: PC-3 prostate
SK-MEL-2 melanoma = tested on: SK-MEL-2 melanoma
MCF7 breast = tested on: MCF7 breast
COLO 205 colon = tested on: COLO 205 colon
SF-268 CNS = tested on: SF-268 CNS
KM12 colon = tested on: KM12 colon
RPMI-8226 leukemia = tested on: RPMI-8226 leukemia
CAKI-1 renal = tested on: CAKI-1 renal
MALME-3M melanoma = tested on: MALME-3M melanoma
OVCAR-5 ovarian = tested on: OVCAR-5 ovarian
HOP-92 NSCLC = tested on: HOP-92 NSCLC
SF-539 CNS = tested on: SF-539 CNS
HS 578T breast = tested on: HS 578T breast
SK-MEL-28 melanoma = tested on: SK-MEL-28 melanoma
OVCAR-8 ovarian = tested on: OVCAR-8 ovarian
UACC-257 melanoma = tested on: UACC-257 melanoma
CCRF-CEM leukemia = tested on: CCRF-CEM leukemia

## Oc1ccc(N=Nc2ccc(Br)cc2)c(O)c1
NCI/ADR-RES ovarian
  GI50: 3.07 µM
  TGI: 9.29 µM
DU-145 prostate
  GI50: 3.43 µM
  TGI: 17.9 µM
HOP-62 NSCLC
  GI50: 3.9 µM
  TGI: 19.5 µM
RXF 393 renal
  GI50: 1.19 µM
  TGI: 9.56 µM
T-47D breast
  GI50: 2.93 µM
  TGI: 42.3 µM
UACC-62 melanoma
  GI50: 3.01 µM
  TGI: 20.8 µM
SF-295 CNS
  GI50: 2.64 µM
  TGI: 11.5 µM
786-0 renal
  GI50: 3.17 µM
  TGI: 23.6 µM
MDA-MB-231 breast
  GI50: 3.47 µM
  TGI: 16.6 µM
HT29 colon
  GI50: 15.5 µM
  TGI: 77.9 µM
SW-620 colon
  GI50: 3.64 µM
  TGI: > 100 µM
HCT-15 colon
  GI50: 3.42 µM
  TGI: 19.4 µM
IGROV1 ovarian
  GI50: 2.81 µM
  TGI: 16.7 µM
NCI-H522 lung
  GI50: 1.74 µM
  TGI: 6.53 µM
SK-MEL-5 melanoma
  GI50: 3.85 µM
  TGI: 21.6 µM
OVCAR-4 ovarian
  GI50: 6.31 µM
  TGI: > 100 µM
NCI-H23 lung
  GI50: 3.22 µM
  TGI: 26.9 µM
EKVX NSCLC
  GI50: 3.86 µM
  TGI: 38.7 µM
HL-60(TB) leukemia
  GI50: 1.71 µM
  TGI: 4.53 µM
U251 CNS
  GI50: 3.59 µM
  TGI: 24.8 µM
HCT-116 colon
  GI50: 3.25 µM
  TGI: 14.1 µM
UO-31 renal
  GI50: 2.27 µM
  TGI: 15.6 µM
SNB-19 CNS
  GI50: 4 µM
  TGI: 68.8 µM
NCI-H460 lung
  GI50: 3.29 µM
  TGI: 21.5 µM
ACHN renal
  GI50: 5.44 µM
  TGI: 37.5 µM
MDA-MB-435
  GI50: 1.25 µM
  TGI: 3.65 µM
K-562 leukemia
  GI50: 1.31 µM
  TGI: 3.75 µM
A549 NSCLC
  GI50: 3.19 µM
  TGI: 17.9 µM
M14 melanoma
  GI50: 2.2 µM
  TGI: 5.62 µM
SNB-75 CNS
  GI50: 2.79 µM
  TGI: 21.8 µM
A498 renal
  GI50: 3.26 µM
  TGI: 20.7 µM
NCI-H226 lung
  GI50: 7.91 µM
  TGI: 42.9 µM
SK-OV-3 ovarian
  GI50: 3.24 µM
  TGI: 18.3 µM
SN12C renal
  GI50: 6.54 µM
  TGI: 50 µM
SR leukemia
  GI50: 0.337 µM
  TGI: 2.54 µM
HCC-2998 colon
  GI50: 3.55 µM
  TGI: 12 µM
OVCAR-3 ovarian
  GI50: 3.2 µM
  TGI: 14.7 µM
LOX IMVI melanoma
  GI50: 8.05 µM
  TGI: 61.1 µM
MOLT-4 leukemia
  GI50: 1.94 µM
  TGI: 5.56 µM
TK-10 renal
  GI50: 4.95 µM
  TGI: 24.8 µM
BT-549 breast
  GI50: 2.67 µM
  TGI: 8.3 µM
PC-3 prostate
  GI50: 3.08 µM
  TGI: 21.7 µM
SK-MEL-2 melanoma
  GI50: 2.64 µM
  TGI: 12 µM
MCF7 breast
  GI50: 2.2 µM
  TGI: 54.3 µM
COLO 205 colon
  GI50: 17.8 µM
  TGI: 48.9 µM
SF-268 CNS
  GI50: 5.84 µM
  TGI: > 100 µM
KM12 colon
  GI50: 3.31 µM
  TGI: 39.8 µM
RPMI-8226 leukemia
  GI50: 1.76 µM
  TGI: 5.35 µM
CAKI-1 renal
  GI50: 4 µM
  TGI: 21 µM
MALME-3M melanoma
  GI50: 3.61 µM
  TGI: 20.7 µM
OVCAR-5 ovarian
  GI50: 5.75 µM
  TGI: 75.5 µM
HOP-92 NSCLC
  GI50: 1.1 µM
  TGI: 6.96 µM
SF-539 CNS
  GI50: 1.93 µM
  TGI: 5.14 µM
HS 578T breast
  GI50: 2.2 µM
  TGI: 6.77 µM
SK-MEL-28 melanoma
  GI50: 7.97 µM
  TGI: > 100 µM
OVCAR-8 ovarian
  GI50: 3.69 µM
  TGI: 21.2 µM
UACC-257 melanoma
  GI50: 7.52 µM
  TGI: 30.7 µM
CCRF-CEM leukemia
  GI50: 1.91 µM
  TGI: 4.82 µM
